{"source": "patent US20240335404A1", "about": "“SUBSTITUTED ESTERS CONTAINING POLYOLS AND SACCHARIDES FOR TREATING HEPATOTOXICITY AND FATTY LIVER DISEASES” (SINEW PHARMA INC., priority 2015, published 2024)", "key": {"CYP2E1": {"molecular_target": "CYP2E1 (Homo sapiens, UniProt P05181)", "sequence (P05181 whole entry)": "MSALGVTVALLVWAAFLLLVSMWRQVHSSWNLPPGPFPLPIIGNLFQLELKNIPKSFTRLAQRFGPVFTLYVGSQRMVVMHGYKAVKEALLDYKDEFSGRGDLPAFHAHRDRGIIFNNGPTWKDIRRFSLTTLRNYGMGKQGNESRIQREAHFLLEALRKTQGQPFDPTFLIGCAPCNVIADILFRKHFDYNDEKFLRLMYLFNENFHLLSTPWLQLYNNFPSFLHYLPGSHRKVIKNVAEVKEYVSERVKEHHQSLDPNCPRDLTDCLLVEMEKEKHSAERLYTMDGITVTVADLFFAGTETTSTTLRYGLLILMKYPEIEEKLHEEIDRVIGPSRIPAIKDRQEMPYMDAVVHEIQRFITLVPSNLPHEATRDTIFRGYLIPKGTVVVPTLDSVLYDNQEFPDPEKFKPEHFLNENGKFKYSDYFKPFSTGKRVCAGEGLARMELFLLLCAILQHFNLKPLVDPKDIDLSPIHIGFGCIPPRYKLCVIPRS", "assay": "CYP2E1 inhibitory activity assay in human liver microsomes (CZX to 6-OH-CZX)", "procedure": "After addition of the test sample, the amount of CYP450 isozyme metabolite standard 6-OH-CZX (6-Hydroxy-Chlorzoxazone) is specific used for calculation of the CYP450 isozyme (CYP2E1) inhibition ratio of the test sample by using the amount of 6-OH-CZX of the control group as the baseline.\nAll samples were tested in triplicate. To determine the percentage inhibition, each test compound was dissolved in 1, 2, 4 μg/mL to three different concentrations. The CYP2E1 activity levels in the presence of the test compounds were compared with the control incubations. The 500-μL reaction mixture, containing 0.5 mg of microsomal protein, was incubated with 320 μM CZX in the presence of 5 mM MgCl2 and 1 mM NADPH in 50 mM phosphate buffer with pH 7.4 at 37° C. for 30 min. The reaction was terminated by ice-cold acetonitrile, and then 4-hydroxyl tolbutamide was added as an internal standard. The organic phase was evaporated to dryness and reconstituted into the mobile phase (methanol:water=1:1) prior to liquid chromatography-tandem mass spectrometry (LC-MS/MS) analysis. An API 3000 triple-quadrupole mass spectrometer equipped with an ion-spray (ESI) source was used to determine 6-OH-CZX in the human liver microsomes. The ESI interface was used in the positive-ion mode. The 6-OH-CZX was monitored at a transition of m/z 284.5→185.9.\nThe CYP450 isozyme activity levels in the presence of the test compounds were compared with the control incubations."}, "[1]": {"assay": "Pro-drug hydrolysis in fresh human whole-blood (in vitro)", "type": "in vitro ADME", "conditions": "37° C., up to 24 hrs (FIG. 1)", "method": "Fresh human whole-blood were used for drug hydrolysis studies. Drug (10 mg, compound F) was dissolved in 1 mL solution (20% methanol). Drug hydrolysis (n=3) was performed in 20 mL of fresh whole-blood aliquots containing 1.0 mg of drug in a 50-mL flask thermostat at 37° C. in a shaking water bath. At time 0, the drug was added, and after various times of incubation, the blood samples were collected at […], 0.75, 1, 2, 4, 6, 12 and 24 hrs. Blood sample were used 1 mL acetonitrile to quench the enzymatic hydrolysis of the drug as samples were obtained. […] The ESI interface was used in the negative-ion mode.\nThe pro-drug was monitored at a transition of m/z 688.9∂→180.9, Sucralose was monitored at a transition of m/z 395→359; mannitol was monitored at a transition of m/z 452.3→273.3; C6-mannitol was monitored at a transition of m/z 309→101.1. All the compounds were identified by high-resolution mass spectrophotometry and ^13C NMR. The structure of C6-mannitol (formula (2)) is as follows: […]\nThe hydrolysis of pro-drug in blood was expressed by plotting the percentage of Pro-drug remaining and the percentage of sucralose, mannitol and C6-mannitol increasing versus time after incubation of the pro-drug in blood (FIG. 1)."}}, "data": [{"smiles": "O=C(CCCCC(=O)OC[C@@H](O)[C@@H](O)[C@H](O)[C@H](O)CO)OCC1O[C@H](O[C@]2(CCl)OC(CCl)C(O)C2O)C(O)C(O)[C@H]1Cl", "note": "(stereo in doubt) [Compound F, ((2R,3R,4R,5R,6R)-6-(((2R,5R)-2,5-bis(chloromethyl)-3,4-dihydroxytetrahydrofuran-2-yl)oxy)-3-chloro-4,5-dihydroxytetrahydro-2H-pyran-2-yl)methyl ((2R,3R,4R)-2,3,4,5,6-pentahydroxyhexyl) adipate]", "values": [{"measurement": "P450 2E1 inhibitor activity", "setting": "CYP2E1", "result": "effective as P450 2E1 inhibitors"}, {"measurement": "CYP 2E1 inhibition ratio (%)", "setting": "CYP2E1; 1 μg/mL", "result": "17.7 ± 0.7", "unit": "%"}, {"measurement": "CYP 2E1 inhibition ratio (%)", "setting": "CYP2E1; 2 μg/mL", "result": "33.3 ± 4.1", "unit": "%"}, {"measurement": "CYP 2E1 inhibition ratio (%)", "setting": "CYP2E1; 4 μg/mL", "result": "45.7 ± 2.5", "unit": "%"}, {"measurement": "percentage of pro-drug remaining and metabolites formed in blood", "setting": "[1]", "result": "turns into its metabolites including sucralose, mannitol and C6-mannitol"}]}]}
